Columns and labels:
[1] = design: method as in PMID 15489122; details: in humans; cited from earlier work
[2] = tested on: primary hippocampal neurons; assay: NeuO staining, number of neurons and neurite lengths; assay type: cell-based; details: for Number of NeuO-stained live neurons / Neurite length: tauK18^P301L, 48 h; for Number of NeuO-stained live neurons: basal 1925 ± 66, control 943 ± 30; for Neurite length: control 142.8 ± 17.8 μm
Experimental: Primary hippocampal neurons were isolated from Day 18 embryonic Sprague‒Dawley rat brains as described previously. The neurons were seeded at a density of 3.5 × 10^5 cells per well on a poly-D-lysine-coated 6-well plate and maintained in neurobasal medium at 37 °C in a humidified atmosphere of 5% CO2. The neurobasal medium contained 2% B27 supplement, 0.5 mM GlutaMAX, 100 units/mL penicillin, and 100 μg/mL streptomycin. Every 3 days, 50% of the medium was replaced with fresh neurobasal medium. At DIV10, neurons were incubated with MB, LMTM (3 µM), or levosimendan (10 µM) in the presence of tauK18^P301L (10 µg/mL) for 48 h.
At DIV10, neurons grown on a 96-well plate were treated with MB, LMTM (3 µM), or levosimendan (10 µM) followed by tauK18^P301L activation. After 48 h, the neurons were stained with NueO (50 nM), a neuron-selective probe. NeuO fluorescence (λex = 460–490 nm and λem = 518–580 nm) images were acquired by using Operetta® (PerkinElmer). The number of neurons and total lengths of neurites were quantified by Harmony 3.1 software (PerkinElmer). Error bars represent the standard deviations (S.D.) of four replicate experiments.

tauK18 [3] = molecular target: T1, tauK18 (Homo sapiens, UniProt P10636); assay: In vitro tau disaggregation assay (thioflavin S); assay type: biochemical; details: preformed tauK18 aggregates, 4 days; read-out: EC50, tau disaggregation (ThS)
T1 construct: under in vitro conditions using a purified tauK18 fragment; 6xHis; made in house; host or cells: E. coli BL21 (DE3)
Experimental: (§1) To evaluate the inhibitory effect of drugs on tau aggregation, tauK18 protein (0.5 mg/mL) was incubated with each drug at various concentrations in the presence of DTT (100 μM) and heparin (0.1 mg/mL) at 37 °C for 5 days with vigorous shaking (220 rpm). For the tau disaggregation assay, the preformed aggregation mixture of tauK18 was incubated with each drug at 37 °C for 4 days with vigorous shaking (220 rpm). On the final day of incubation, the level of β-sheet aggregates was evaluated by thioflavin S (ThS) assay. For the ThS assay, 5 μL of each mixture was transferred to a black 384-well plate with 45 μL of PBS containing 10 μM ThS. ThS fluorescence (λex = 430 nm, and λem = 500 nm) was measured by using a Flexstation2 spectrophotometer (Molecular Devices).

tauK18 [4] = molecular target: T1, tauK18; assay: In vitro tau aggregation assay (thioflavin S); assay type: biochemical; details: 5 days; for EC50: tauK18 with heparin and DTT, read-out: EC50, inhibition of tau aggregation (ThS)
Experimental: as §1

tauK18 [5] = molecular target: T1, tauK18; assay: Transmission electron microscopy of tau filaments and oligomers; assay type: biochemical; details: tauK18 preaggregates; DMSO control 13.7 ± 5.2 nm
Experimental: Samples were placed onto carbon-coated copper electron microscopy grids and then negatively stained with 2% (w/v) aqueous uranyl acetate for 1 min. To image the tau filaments (Fig. 3d), the grids were observed using a JEM-1011 transmission electron microscope (JEOL) at an acceleration voltage of 80 kV. To image the tau filaments and oligomers (Figs. 3f and 4e), the grids were observed using a Tecni G2 F20 transmission electron microscope (FEI) at an acceleration voltage of 120 kV. Eight to twelve random images from each experimental condition were captured by the operator as a blind observer.

Tau^P301L-BiFC mice = assay: Passive avoidance test; assay type: in vivo, mouse; details: 5 mg/kg i.p., three times a week, 4 months; compared with vehicle-treated TG
Experimental: For drug administration, LMTM and levosimendan were dissolved in PBS containing 40% polyethylene glycol (PEG; Sigma). Nine-month-old Tau^P301L-BiFC mice were intraperitoneally administered each drug for 4 months, three times a week, at a dosage of 5 mg/kg (n = 11 per group). Vehicle-treated Tau^P301L-BiFC mice and age-matched wild-type mice were used as control groups. Behavioral assessments were conducted as described below for one month from the end of drug administration. All mice were sacrificed at the age of 14 months for pathological analysis.
The passive avoidance test was performed as described previously[44] with the following modifications. Mice (n = 8 per group) were adapted in the passive avoidance chamber (Gemini) for 10 min and then returned to their home cages. The chamber is composed of a light compartment and a dark compartment separated by a connecting gate. The following day, the mice were placed in the light compartment, and the gate was opened after 30 s. When mice entered the dark compartment, the gate was closed, and an electrical foot shock (3 mA) was delivered for 2 s. The mice were left in the dark compartment for 30 s after the foot shock so that they associated the environment with the aversive stimulus. The mice were then returned to their home cages. […] The step-through latency, the time required for mice to enter the dark compartment, was measured up to 540 s.

tau = tau (Homo sapiens, UniProt P10636); assay: Tau-BiFC response in tau-BiFC cells (high-content imaging); assay type: cell-based; design: expressed in transfected cells; host or cells: HEK293 Tau-BiFC cells (G418-selected); details: 48 h of treatment
Tau-BiFC cells = assay: Flow cytometry analysis of tau-BiFC cells; assay type: cell-based, human; details: for P1: intact cell population out of total cells: 24 h; for Median BiFC fluorescence intensity of BiFC-responding cells: BiFC^ON control […] ± 62, basal 332 ± 110
Experimental: After 24 h, BiFC cells were collected and subjected to flow cytometry analysis using a BD FACSLyric^TM cytometer (BD Biosciences). A total of 50,000 events were acquired per sample. All samples were gated using the same gating tree and gate positions: side scatter area (SSC-A) vs. forward scatter area (FSC-A) for viable and singlet cell populations. BiFC fluorescence was excited by a 488 nm wave laser and collected through a 527/32 bandpass filter.

[6] = Tau-BiFC^ON by forskolin (30 μM)
[7] = Tau-BiFC^ON by tauK18^P301L (5 μg/mL)

tau, sequence (P10636 1-441 isoform P10636-8): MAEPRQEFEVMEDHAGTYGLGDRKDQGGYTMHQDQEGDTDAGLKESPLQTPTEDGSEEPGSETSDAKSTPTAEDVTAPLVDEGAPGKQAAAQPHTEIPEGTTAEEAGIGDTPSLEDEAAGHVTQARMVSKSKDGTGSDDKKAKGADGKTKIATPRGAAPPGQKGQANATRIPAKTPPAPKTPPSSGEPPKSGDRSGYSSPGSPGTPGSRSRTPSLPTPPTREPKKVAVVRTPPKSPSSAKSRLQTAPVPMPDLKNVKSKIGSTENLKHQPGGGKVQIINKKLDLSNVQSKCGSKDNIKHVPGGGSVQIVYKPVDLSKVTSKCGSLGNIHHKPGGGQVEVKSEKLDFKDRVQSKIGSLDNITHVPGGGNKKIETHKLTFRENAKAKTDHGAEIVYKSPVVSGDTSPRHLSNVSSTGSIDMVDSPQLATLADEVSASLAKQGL
tau, sequence (P10636 1-441 isoform P10636-8): as above
T1 sequence (P10636 561-685 limits assumed): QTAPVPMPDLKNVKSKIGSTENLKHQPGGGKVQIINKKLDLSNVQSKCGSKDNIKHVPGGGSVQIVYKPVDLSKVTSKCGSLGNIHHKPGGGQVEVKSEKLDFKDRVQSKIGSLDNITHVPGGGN

| SMILES | Portion of levosimendan metabolized to OR-1855 and OR-1896 [1] [%] | Number of NeuO-stained live neurons ([2]; 10 μM) [neurons] | Neurite length ([2]; 10 μM) [μm] | EC50 (tauK18 [3]) [µM] | Inhibition of tau aggregation in vitro (ThS response) (tauK18 [4]; heparin-induced) | EC50 (tauK18 [4]) [µM] | Diameter (width) of tau particles (TEM) (tauK18 [5]) [nm] | Latency of entering the dark compartment (Tau^P301L-BiFC mice) | EC50 (tau; [6]) [µM] | EC50 (tau; [7]) [µM] | P1: intact cell population out of total cells (Tau-BiFC cells; drug 15 μM with tauK18^P301L) [%] | Median BiFC fluorescence intensity of BiFC-responding cells (Tau-BiFC cells; drug 15 μM with tauK18^P301L) | Number of NeuO-stained live neurons ([2]; 3 μM) [neurons] | Neurite length ([2]; 3 μM) [μm] | Neuronal cell death in primary hippocampal neurons ([2]; higher concentrations over 10 μM (data not shown)) | P1: intact cell population out of total cells (Tau-BiFC cells; drug 5 μM with tauK18^P301L) [%] | Median BiFC fluorescence intensity of BiFC-responding cells (Tau-BiFC cells; drug 5 μM with tauK18^P301L) |
| --- | --- | --- | --- | --- | --- | --- | --- | --- | --- | --- | --- | --- | --- | --- | --- | --- | --- |
| C[C@@H]1CC(=O)NN=C1c1ccc(NN=C(C#N)C#N)cc1 [Levosimendan] | 5 | 1650 ± 114 | 346.8 ± 20.7 | 3.7 ± 0.2 | strong anti-tau aggregation activity | 2.6 ± 0.1 | 8.8 ± 2.0 | delayed latency or not entering the chamber | 1.9 ± 0.1 | 2.2 ± 0.1 | 69.0 | 249 ± 59 | – | – | – | – | – |
| CN(C)c1ccc2c(c1)Sc1cc(N(C)C)ccc1N2.CS(=O)(=O)O.CS(=O)(=O)O [LMTM, leucomethylene blue mesylate] | – | – | – | 3.4 ± 0.2 | – | 1.9 ± 0.2 | – | did not show significant improvement | 2.2 ± 0.2 | 2.7 ± 0.2 | – | – | 1182 ± 76 | 151.1 ± 24.4 | severe neuronal cell death | 14.5 | 596 ± 57 |

— publication PMC10073126, “Levosimendan inhibits disulfide tau oligomerization and ameliorates tau pathology in Tau^P301L-BiFC mice” (Experimental & Molecular Medicine, 2023)
